In ChEMBL document CHEMBL3870365, “Development of 4-Heteroarylamino-1'-azaspiro[oxazole-5,3'-bicyclo[2.2.2]octanes] as α7 Nicotinic Receptor Agonists” (ACS Med Chem Lett, 2017):

Legend:
[1] = in vivo; conditions: C57BL/6, mouse, brain/plasma, sc, 0.01 mg/kg
[2] = in vivo; conditions: C57BL/6, mouse, plasma, sc, 0.01 mg/kg
[3] = mouse, in vivo, sc, 0.01 mg/kg, 0.5 h
[4] = Plasma concentration in C57BL/6 mouse at 0.03 mg/kg, sc after 30 mins; format: ADME, organism-based
[5] = Fraction unbound in C57BL/6 mouse plasma at 0.03 mg/kg, sc after 30 mins; format: ADME, organism-based; conditions: in vivo, 0.5 h
[6] = Ratio of drug level in brain to plasma in C57BL/6 mouse at 0.03 mg/kg, sc after 30 mins; format: ADME, organism-based; conditions: read-out: BPR

Row | SMILES | Kp at 0.5 h [1] | concentration at 0.5 h [2] | Cp(f) [3] | concentration at 0.5 h [4] | Cp(f) [5] | Kp at 0.5 h [6]
1 | Brc1ccc2c(NC3=NC[C@@]4(CN5CCC4CC5)O3)ncnn12 | 4.9 | 7 nM | 50 to 75% |  |  | 
2 | Clc1ccc2c(NC3=NC[C@@]4(CN5CCC4CC5)O3)ncnn12 |  |  |  | 18 nM | 50 to 75% | 1.9
